Reference: article PMC8191317, “Structural and functional analysis of lignostilbene dioxygenases from Sphingobium sp. SYK-6” (The Journal of Biological Chemistry, 2021)

Experiments:
Format in all cases: biochemical
LSD7 = target: T1, LSD7 (Sphingobium sp. SYK-6, UniProt G2INY0); assay: oxygraph O2 consumption, E. coli lysate; settings: 100 μM substrate
T1 construct: gene SLG_09440; pET41b, E. coli BL21(DE3) lysate
T1 sequence (G2INY0 1-483): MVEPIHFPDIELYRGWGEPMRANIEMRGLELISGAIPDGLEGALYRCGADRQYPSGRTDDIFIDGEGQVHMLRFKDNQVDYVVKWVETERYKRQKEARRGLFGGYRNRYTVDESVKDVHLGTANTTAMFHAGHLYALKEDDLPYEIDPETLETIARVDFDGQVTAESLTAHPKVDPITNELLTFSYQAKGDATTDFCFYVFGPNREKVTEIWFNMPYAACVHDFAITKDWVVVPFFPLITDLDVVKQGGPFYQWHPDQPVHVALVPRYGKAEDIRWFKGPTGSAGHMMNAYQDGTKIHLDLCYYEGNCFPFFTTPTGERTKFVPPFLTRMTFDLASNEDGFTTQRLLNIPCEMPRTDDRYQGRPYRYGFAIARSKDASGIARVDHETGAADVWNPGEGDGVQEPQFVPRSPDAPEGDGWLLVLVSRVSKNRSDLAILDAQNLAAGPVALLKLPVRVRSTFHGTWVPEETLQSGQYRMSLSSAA

LSD5 = target: T2, LSD5 (Sphingobium sp. SYK-6, UniProt G2IKS0); assay: oxygraph O2 consumption, E. coli lysate; settings: 100 μM substrate
T2 construct: gene SLG_27970; pET41b, E. coli BL21(DE3) lysate
T2 sequence (G2IKS0 1-492): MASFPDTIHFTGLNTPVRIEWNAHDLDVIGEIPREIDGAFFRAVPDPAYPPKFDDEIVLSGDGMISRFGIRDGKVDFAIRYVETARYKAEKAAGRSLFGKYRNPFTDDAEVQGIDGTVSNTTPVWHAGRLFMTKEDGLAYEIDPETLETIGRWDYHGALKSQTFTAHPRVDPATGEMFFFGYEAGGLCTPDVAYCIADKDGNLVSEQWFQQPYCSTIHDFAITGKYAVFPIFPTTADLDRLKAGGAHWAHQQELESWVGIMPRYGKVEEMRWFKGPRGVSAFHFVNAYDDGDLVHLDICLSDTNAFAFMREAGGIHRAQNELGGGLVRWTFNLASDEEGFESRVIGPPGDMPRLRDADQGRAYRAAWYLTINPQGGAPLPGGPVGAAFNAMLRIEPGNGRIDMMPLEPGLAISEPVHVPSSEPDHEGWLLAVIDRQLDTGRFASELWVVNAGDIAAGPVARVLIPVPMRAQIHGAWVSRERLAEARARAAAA

LSD2 = target: T3, LSD2 (Sphingobium sp. SYK-6, UniProt G2IQG5); assay: oxygraph O2 consumption, E. coli lysate; settings: 100 μM substrate
T3 construct: gene SLG_36640; pET41b, E. coli BL21(DE3) lysate, co-produced with GroEL/GroES
T3 sequence (G2IQG5 1-490): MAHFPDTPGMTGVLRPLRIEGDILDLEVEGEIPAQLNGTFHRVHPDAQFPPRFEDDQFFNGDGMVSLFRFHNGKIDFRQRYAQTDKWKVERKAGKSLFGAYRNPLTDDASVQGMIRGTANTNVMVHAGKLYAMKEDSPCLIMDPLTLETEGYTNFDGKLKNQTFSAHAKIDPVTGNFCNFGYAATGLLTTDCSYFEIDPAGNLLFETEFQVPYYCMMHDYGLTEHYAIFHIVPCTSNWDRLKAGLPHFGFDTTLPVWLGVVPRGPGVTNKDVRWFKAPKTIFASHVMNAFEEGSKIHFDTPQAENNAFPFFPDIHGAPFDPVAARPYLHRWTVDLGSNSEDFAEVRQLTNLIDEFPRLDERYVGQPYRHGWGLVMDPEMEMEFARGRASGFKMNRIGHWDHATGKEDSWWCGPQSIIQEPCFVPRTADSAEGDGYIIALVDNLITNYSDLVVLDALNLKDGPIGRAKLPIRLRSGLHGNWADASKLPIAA

LSD1 = target: T4, LSD1 (Sphingobium sp. SYK-6, UniProt G2IR63); assay: oxygraph O2 consumption, E. coli lysate; settings: 100 μM substrate
T4 construct: gene SLG_37540; pET41b, E. coli BL21(DE3) lysate, co-produced with GroEL/GroES
T4 sequence (G2IR63 1-486): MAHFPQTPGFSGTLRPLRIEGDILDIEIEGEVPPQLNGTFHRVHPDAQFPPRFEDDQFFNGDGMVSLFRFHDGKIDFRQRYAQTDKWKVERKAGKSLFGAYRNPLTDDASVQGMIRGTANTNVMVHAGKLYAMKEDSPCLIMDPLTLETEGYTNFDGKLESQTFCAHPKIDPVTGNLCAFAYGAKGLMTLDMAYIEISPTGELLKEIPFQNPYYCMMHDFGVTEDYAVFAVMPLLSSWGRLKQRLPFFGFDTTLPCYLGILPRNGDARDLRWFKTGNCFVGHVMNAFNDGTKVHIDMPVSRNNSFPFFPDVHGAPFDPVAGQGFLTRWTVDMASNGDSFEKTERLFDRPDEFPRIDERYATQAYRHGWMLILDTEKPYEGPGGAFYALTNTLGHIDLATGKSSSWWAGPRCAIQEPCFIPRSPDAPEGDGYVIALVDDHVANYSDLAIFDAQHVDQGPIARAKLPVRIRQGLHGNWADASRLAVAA

LSD6 = target: T5, LSD6 (Sphingomonas paucimobilis, UniProt Q8RQW2); assay: oxygraph O2 consumption, E. coli lysate; settings: 100 μM substrate
T5 construct: gene lsdA; pET41b, E. coli BL21(DE3) lysate
T5 sequence (Q8RQW2 1-491): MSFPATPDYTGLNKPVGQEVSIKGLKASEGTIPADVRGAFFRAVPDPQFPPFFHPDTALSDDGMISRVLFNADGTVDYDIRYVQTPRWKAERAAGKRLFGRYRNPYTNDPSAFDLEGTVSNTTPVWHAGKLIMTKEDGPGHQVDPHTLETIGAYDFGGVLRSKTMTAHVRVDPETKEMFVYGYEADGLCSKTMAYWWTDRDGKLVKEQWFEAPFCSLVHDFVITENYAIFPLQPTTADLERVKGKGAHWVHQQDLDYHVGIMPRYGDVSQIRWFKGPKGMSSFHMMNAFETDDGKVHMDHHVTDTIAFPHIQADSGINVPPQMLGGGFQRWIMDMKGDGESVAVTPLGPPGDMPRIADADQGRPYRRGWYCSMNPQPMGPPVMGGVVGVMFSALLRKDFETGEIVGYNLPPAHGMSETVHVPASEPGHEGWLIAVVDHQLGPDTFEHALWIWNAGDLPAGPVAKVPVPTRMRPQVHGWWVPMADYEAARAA

LSD3 = target: T6, LSD3 (Sphingobium sp. SYK-6, UniProt G2IPX7); assay: oxygraph O2 consumption, E. coli lysate; settings: 100 μM substrate
T6 construct: gene SLG_11300; pET41b, E. coli BL21(DE3) lysate
T6 sequence (G2IPX7 1-491): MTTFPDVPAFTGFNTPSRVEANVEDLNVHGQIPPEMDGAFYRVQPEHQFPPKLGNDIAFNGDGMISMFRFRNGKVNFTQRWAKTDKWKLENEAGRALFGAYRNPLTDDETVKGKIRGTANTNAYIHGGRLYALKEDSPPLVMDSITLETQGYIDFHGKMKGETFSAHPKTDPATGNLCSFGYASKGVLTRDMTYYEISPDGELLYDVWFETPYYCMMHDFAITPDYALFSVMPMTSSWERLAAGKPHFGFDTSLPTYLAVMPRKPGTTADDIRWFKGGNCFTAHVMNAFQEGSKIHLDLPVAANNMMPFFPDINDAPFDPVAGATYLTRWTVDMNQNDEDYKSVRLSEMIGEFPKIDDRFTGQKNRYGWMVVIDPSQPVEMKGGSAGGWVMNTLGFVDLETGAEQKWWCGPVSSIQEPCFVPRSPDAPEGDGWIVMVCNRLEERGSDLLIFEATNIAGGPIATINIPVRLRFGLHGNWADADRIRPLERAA

LSD4 = target: T7, LSD4 (Sphingobium sp. SYK-6, UniProt Z9AM74RXJ0); assay: O2 electrode (oxygraph) inhibition kinetics; settings: read-out: Kic
T7 construct: residues 2-489 modelled; Fe2+ enzyme, Co-LSD4 for complexes
T7 sequence (Z9AM74RXJ0 1-489): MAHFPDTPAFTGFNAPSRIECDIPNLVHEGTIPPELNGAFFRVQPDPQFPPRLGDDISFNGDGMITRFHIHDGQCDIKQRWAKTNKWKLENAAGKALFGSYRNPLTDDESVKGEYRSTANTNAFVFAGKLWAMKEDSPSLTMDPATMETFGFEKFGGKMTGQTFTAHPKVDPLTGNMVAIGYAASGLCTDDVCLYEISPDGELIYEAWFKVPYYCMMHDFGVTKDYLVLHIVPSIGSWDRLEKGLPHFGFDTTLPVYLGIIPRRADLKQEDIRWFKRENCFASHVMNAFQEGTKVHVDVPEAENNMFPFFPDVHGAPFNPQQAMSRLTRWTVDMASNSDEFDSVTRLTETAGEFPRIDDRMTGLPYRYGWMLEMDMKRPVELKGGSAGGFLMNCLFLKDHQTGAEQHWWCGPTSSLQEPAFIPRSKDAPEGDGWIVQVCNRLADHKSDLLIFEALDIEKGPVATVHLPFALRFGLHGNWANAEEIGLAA

SMILES | relative activity (LSD7) | relative activity (LSD5) | relative activity (LSD2) | relative activity (LSD1) | relative activity (LSD6) | relative activity (LSD3) | Ki (LSD4) [µM]
COc1cc(/C=C/c2ccc(O)c(OC)c2)ccc1O [compound 2, lignostilbene] | cell lysates containing LSD1, LSD5, LSD6, or LSD7 preferentially cleaved lignostilbene over DCA-S | cell lysates containing LSD1, LSD5, LSD6, or LSD7 preferentially cleaved lignostilbene over DCA-S | The seven soluble enzymes all cleaved lignostilbene | cell lysates containing LSD1, LSD5, LSD6, or LSD7 preferentially cleaved lignostilbene over DCA-S | cell lysates containing LSD1, LSD5, LSD6, or LSD7 preferentially cleaved lignostilbene over DCA-S | The seven soluble enzymes all cleaved lignostilbene | –
COc1cc(C=O)ccc1O [vanillin] | – | – | – | – | – | – | 30 ± 8
